Consider nine molecules from publication PMC8284454, “In Vitro Profiling of Antitubercular Compounds by Rapid, Efficient, and Nondestructive Assays Using Autoluminescent Mycobacterium tuberculosis” (Antimicrobial Agents and Chemotherapy, 2021).

Series [1] concerns J774-internalized M. tuberculosis (H37Rv). Description: intracellular activity by luminescence (EC90). In kind it is cell-based, Mycobacterium tuberculosis. Conditions: for EC90: RLU; for onset of growth inhibition of internalized M. tuberculosis: early = EC90 obtainable by day 3, late = EC90 obtainable by day 5 or later.
The subject of series [2] is macrophage-internalized M. tuberculosis. Conditions: read-out: Literature reported EC90, cited from earlier work.
Series [3] relates to M. tuberculosis H37Rv_LuxABCDE. Description: luminescence-based MBC assay (LMBCA) / time-kill. Type of series: cell-based, Mycobacterium tuberculosis. Conditions: for MBC: Mycobacterium tuberculosis; for time and/or concentration dependence of bactericidal activity: time-kill curves up to day 21; for change of MBC values over time: over 21 days, luminescence time-kill.
In series [4] the test system is M. tuberculosis H37Rv_LuxABCDE. As to the kind of experiment: microbe, parasite or virus in culture. In kind it is cell-based, Mycobacterium tuberculosis. Conditions: day 7, SD from three independent experiments; for MBC: Mycobacterium tuberculosis, read-out: MBC (±SD) via CFU.
Series [5] deals with M. tuberculosis H37Rv_LuxABCDE. As to the kind of experiment: luminescence-based MIC assay (LMICA). Conditions: 90% reduction of luminescence, 7 days, 7H12 medium; SD from three independent experiments.
Series [6] relates to M. tuberculosis H37Rv_LuxABCDE. As to the kind of experiment: microplate alamarBlue assay (MABA) MIC. Conditions: 90% reduction of fluorescence, 7 days, 7H12 medium; SD from three independent experiments.
The mark [7] stands for this setting: Mycobacterium tuberculosis, H37RV, 72 h, EC90, day 3, J774 macrophages, read-out: Intracellular activity, EC90 (±SD) Day 3.
The mark [8] stands for this setting: Mycobacterium tuberculosis, H37RV, 120 h, EC90, day 5, J774 macrophages, read-out: Intracellular activity, EC90 (±SD) Day 5.
Setting [9] is: Mycobacterium tuberculosis, H37RV, 168 h, EC90, day 7, J774 macrophages, read-out: Intracellular activity, EC90 (±SD) Day 7.
Setting [10] is: 168 h, day 7, 99% reduction in RLU vs T0, SD from three independent experiments, read-out: MBC (±SD) via luminescence.
The mark [11] stands for this setting: 336 h, day 14, 99% reduction in RLU vs T0, read-out: MBC (±SD) by luminescence on day 14.
[12] abbreviates: 504 h, day 21, 99% reduction in RLU vs T0, read-out: MBC (±SD) by luminescence on day 21.
The mark [13] stands for this setting: day 7, 99% reduction in RLU vs T0, SD from three independent experiments.

Converted amounts (≈) assume the structure as drawn. Like-named read-outs stand apart in the source and are kept apart here. Marks after values point to notes of the source that are not given here. A value given as a limit tells only on which side of the number the result lay.

What is called EC90 is the concentration at which the effect reaches the 90% level. As for `NCC[C@H](O)C(=O)N[C@@H]1C[C@H](N)[C@@H](O[C@H]2O[C@H](CN)[C@@H](O)[C@H](O)[C@H]2O)[C@H](O)[C@H]1O[C@H]1O[C@H](CO)[C@@H](O)[C@H](N)[C@H]1O` [Amikacin], the 90% effect concentration (EC90) in series [1] (setting [7]) is over 34 µM; in series [1] (setting [8]), over 34 µM; in series [1] (setting [9]) it was over 34 µM; in series [2] (EC90, high-content imaging on day 5) it was over 26 µM. Further, the inhibition at 34 µM in series [1] (Mycobacterium tuberculosis, H37RV, 72 h, day 3, 34 μM, read-out: percent inhibition at the highest tested concentration, intracellular activity Day 3) is 4%; in series [1] (Mycobacterium tuberculosis, H37RV, 120 h, day 5, 34 μM, read-out: percent inhibition at the highest tested concentration, intracellular activity Day 5), 34%; in series [1] (Mycobacterium tuberculosis, H37RV, 168 h, day 7, 34 μM, read-out: percent inhibition at the highest tested concentration, intracellular activity Day 7), 49%.

On to `COc1nc2ccc(Br)cc2cc1[C@@H](c1ccccc1)[C@@](O)(CCN(C)C)c1cccc2ccccc12` [Bedaquiline], for which the MBC came to 0.13 µM (≈ 0.0722 µg/mL) in series [3] (setting [10]), 0.11 µM (≈ 0.0611 µg/mL) in series [3] (setting [11]), 0.12 µM (≈ 0.0667 µg/mL) in series [3] (setting [12]) and 0.16 µM (≈ 0.0889 µg/mL) in series [4]. The “time and/or concentration dependence of bactericidal activity” value (“time and/or concentration dependence” for short) in series [3] is “primarily concentration dependent”. In addition, the EC90 is 0.89 µM in series [1] (setting [7]), 0.29 µM in series [1] (setting [8]), 0.22 µM in series [1] (setting [9]) and 0.1 µM in series [2] (EC90). For the same molecule, the “onset of growth inhibition of internalized M. tuberculosis” value in series [1] is listed as “early growth inhibition”. The “Toxicity against infected J774, percent inhibition at the highest tested concentration” value in the series on infected J774 (day 7, 2 μM) is 2 (7)* percent. The “MIC (±SD) LMICA” value in series [5] was 0.028 (0.01) μM. Moreover, the “MIC (±SD) MABA” value in series [6] is listed as 0.021 (0.01) μM.

With `CC(C)/N=c1\cc2n(-c3ccc(Cl)cc3)c3ccccc3nc-2cc1Nc1ccc(Cl)cc1` [Clofazimine], the MBC was 1.81 µM (≈ 0.857 µg/mL) in series [3] (setting [10]), 0.82 µM (≈ 0.388 µg/mL) in series [3] (setting [11]), 1.01 µM (≈ 0.478 µg/mL) in series [3] (setting [12]) and over 4 µM in series [4]. In series [3] (setting [13]), the “MBC (±SD) via luminescence” value is reported as 1.8 (0.19) μM. In addition, the “change of MBC values over time” value in series [3] is on record as “decreased”. Besides, the “time and/or concentration dependence” value in series [3] was “both time and concentration dependent”. For the same molecule, the EC90 was 19 µM in series [1] (setting [7]), 6.69 µM in series [1] (setting [8]), 3.7 µM in series [1] (setting [9]) and about 2.1 µM in series [2] (EC90). Moreover, the “onset of growth inhibition of internalized M. tuberculosis” value in series [1] is “early growth inhibition”. In the series on infected J774 (day 7, 50 μM), the “Toxicity against infected J774, percent inhibition at the highest tested concentration” value was 50 (45)* percent. Besides, the “MIC (±SD) MABA” value in series [6] is listed as 0.014 (0.02) μM.

In the case of `CC[C@@H](CO)NCCN[C@@H](CC)CO` [Ethambutol], the MBC in series [3] (setting [10]) was found to be 9.18 µM (≈ 1.88 µg/mL); in series [3] (setting [11]), 3.17 µM (≈ 0.648 µg/mL); in series [3] (setting [12]), 3.28 µM (≈ 0.67 µg/mL); in series [4] it was 7.9 µM (≈ 1.61 µg/mL). Also, the “MBC (±SD) via luminescence” value in series [3] (setting [13]) is 9.2 (2.7) μM. Also, in series [3], the “change of MBC values over time” value is given as “decreased”. Further, the “time and/or concentration dependence” value in series [3] is on record as “mainly time dependent”. Also, the EC90 in series [1] (setting [7]) was over 50 µM; in series [1] (setting [8]), 44 µM; in series [1] (setting [9]), 23.8 µM; in series [2] (EC90), 16.7 µM. In addition, the inhibition at 50 µM in series [1] (Mycobacterium tuberculosis, H37RV, 72 h, day 3, 50 μM, read-out: percent inhibition at the highest tested concentration, intracellular activity Day 3) amounted to 68%. Besides, the “onset of growth inhibition of internalized M. tuberculosis” value in series [1] is listed as “late growth inhibition”. Further, the “Toxicity against infected J774, percent inhibition at the highest tested concentration” value in the series with infected J774 (day 7, 50 μM) is given as 50 (0)* percent. Also, the “MIC (±SD) LMICA” value in series [5] is 1.3 (0.38) μM. Further, the “MIC (±SD) MABA” value in series [6] is 2.0 (0.41) μM.

Turning to `CC(=O)NC[C@H]1CN(c2ccc(N3CCOCC3)c(F)c2)C(=O)O1` [Linezolid], the MBC in series [3] (setting [10]) was 9.6 µM (≈ 3.24 µg/mL); in series [3] (setting [11]) it was 7 µM (≈ 2.36 µg/mL); in series [3] (setting [12]) it was 6 µM (≈ 2.02 µg/mL); in series [4], over 29 µM. Also, the “change of MBC values over time” value in series [3] is listed as “decreased”. Further, the “time and/or concentration dependence” value in series [3] is recorded as “mainly time dependent”. Further, the “MIC (±SD) LMICA” value in series [5] was 1.7 (0.23) μM. Further, the “MIC (±SD) MABA” value in series [6] is listed as 1.7 (0.10) μM.

As for `COc1c(N2C[C@@H]3CCCN[C@@H]3C2)c(F)cc2c(=O)c(C(=O)O)cn(C3CC3)c12` [Moxifloxacin], the MBC in series [3] (setting [10]) was found to be 0.91 µM (≈ 0.365 µg/mL); in series [3] (setting [11]), 0.42 µM (≈ 0.169 µg/mL); in series [3] (setting [12]), 0.46 µM (≈ 0.185 µg/mL); in series [4], 0.753 µM (≈ 0.302 µg/mL). For the same molecule, the “change of MBC values over time” value in series [3] was “decreased”. In addition, the “time and/or concentration dependence” value in series [3] was “both time and concentration dependent”. The “MIC (±SD) LMICA” value in series [5] is on record as 0.13 (0.02) μM. The “MIC (±SD) MABA” value in series [6] was 0.24 (0.04) μM.

Regarding `O=[N+]([O-])c1cn2c(n1)OC[C@@H](OCc1ccc(OC(F)(F)F)cc1)C2` [Pretomanid], the MBC worked out at 0.63 µM (≈ 0.226 µg/mL) in series [3] (setting [10]), 12.5 µM (≈ 4.49 µg/mL) in series [3] (setting [11]), 13 µM (≈ 4.67 µg/mL) in series [3] (setting [12]) and 0.5 µM (≈ 0.18 µg/mL) in series [4]. Moreover, the “change of MBC values over time” value in series [3] is “increase”. Moreover, the “time and/or concentration dependence” value in series [3] is “both time and concentration dependent”. Also, in series [5], the “MIC (±SD) LMICA” value is recorded as 0.46 (0.01) μM. For the same molecule, in series [6], the “MIC (±SD) MABA” value is recorded as 0.49 (0.02) μM.

Turning to `[H]/N=C(/N)N[C@H]1[C@H](O)[C@@H](O)[C@H](O[C@@H]2O[C@@H](C)[C@](O)(C=O)[C@H]2O[C@@H]2O[C@@H](CO)[C@H](O)[C@@H](O)[C@@H]2NC)[C@@H](N/C(N)=N\[H])[C@@H]1O` [Streptomycin], the MBC in series [3] (setting [10]) came to 0.3 µM (≈ 0.174 µg/mL); in series [3] (setting [11]), 0.5 µM (≈ 0.291 µg/mL); in series [3] (setting [12]) it was 0.9 µM (≈ 0.523 µg/mL); in series [4], 0.37 µM (≈ 0.215 µg/mL). Besides, the “time and/or concentration dependence” value in series [3] was “both time and concentration dependent”. In series [5], the “MIC (±SD) LMICA” value is listed as 0.12 (0.04) μM. In addition, the “MIC (±SD) MABA” value in series [6] is recorded as 0.12 (0.02) μM.

As for Capreomycin, the “MBC (±SD) via luminescence” value in series [3] (setting [13]) is reported as 1.3 (0.4) μM. Further, the “MBC (±SD) by luminescence on day 14” value in series [3] (day 14, 99% reduction in RLU vs T0) is 6.94 (3.8) µM. The “MBC (±SD) by luminescence on day 21” value in series [3] (day 21, 99% reduction in RLU vs T0) is 13.65 (2.34) µM. In addition, the “change of MBC values over time” value in series [3] is given as “increase”. Moreover, the “MBC (±SD) via CFU” value in series [4] was 1.7 (0.9) μM. In series [5], the “MIC (±SD) LMICA” value is 0.53 (0.07) μM. Also, the “MIC (±SD) MABA” value in series [6] is on record as 0.70 (0.03) μM.
